The target of the first experiment is T1, NS3 genotype 3a protease (UniProt Q81258).
T1 construct: Purified NS3 protease domain (amino acids 1-181) of the genotype 1b and 3a virus were generated as above; fused on or other part: N-terminal hexahistidine tag and rTEV protease cleavage site (vector p28-N6H-Tev-NS3(181)3)
T1 sequence (Q81258 1033-1663): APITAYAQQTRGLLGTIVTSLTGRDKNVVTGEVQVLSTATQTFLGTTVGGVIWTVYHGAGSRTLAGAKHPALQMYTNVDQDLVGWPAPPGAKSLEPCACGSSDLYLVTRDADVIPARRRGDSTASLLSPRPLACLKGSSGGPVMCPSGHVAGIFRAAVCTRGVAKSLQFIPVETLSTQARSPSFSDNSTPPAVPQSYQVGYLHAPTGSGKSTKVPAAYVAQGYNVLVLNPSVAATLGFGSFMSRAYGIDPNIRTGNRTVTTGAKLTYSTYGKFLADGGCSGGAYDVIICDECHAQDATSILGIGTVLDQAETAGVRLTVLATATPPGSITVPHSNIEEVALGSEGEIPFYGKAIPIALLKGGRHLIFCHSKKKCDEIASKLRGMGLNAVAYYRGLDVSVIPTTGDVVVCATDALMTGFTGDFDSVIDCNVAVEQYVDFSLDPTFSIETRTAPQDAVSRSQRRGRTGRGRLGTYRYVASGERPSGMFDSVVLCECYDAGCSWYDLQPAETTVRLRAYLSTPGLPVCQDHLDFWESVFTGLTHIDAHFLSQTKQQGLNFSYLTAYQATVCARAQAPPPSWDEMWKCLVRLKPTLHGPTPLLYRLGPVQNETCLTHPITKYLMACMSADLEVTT
Briefly: Ki determination, NS3 protease genotype 3a (fluorogenic depsipeptide substrate). Format: biochemical, hepatitis C virus. The following applies: 200 pM enzyme, 20 μM NS4A peptide, 2 μM substrate, read-out: Ki 3A. The method, boiled down:
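Refolded His-tagged NS3 protease domain (aa 1-181, genotype 3a) at 200 pM with 20 μM NS4A peptide was pre-incubated 1 h at RT with inhibitor (100 nM–5 pM, 3-fold), then 2 μM FRET depsipeptide substrate was added in HEPES/40% glycerol/10% DMSO buffer. Steady-state rates over 90-120 min (ex 340/em 490 nm) versus inhibitor concentration gave Ki.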
In general, Ki refers to a dissociation constant, usually derived from enzyme kinetics or from competition with a known ligand. Regarding `CC[C@@H]1[C@@H]2CN(C(=O)[C@H](C(C)(C)C)NC(=O)O[C@@H]3C[C@H]3CCCCC(F)(F)c3nc4ccc(OC)cc4nc3O2)[C@@H]1C(=O)N[C@]1(C(=O)NS(=O)(=O)C2(C)CC2)C[C@H]1CC(F)F` [Example 35, (1aR,5S,8S,9S,10R,22aR)-5-tert-butyl-N-[(1R,2S)-2-(2,2-difluoroethyl)-1-{[(1-methylcyclopropyl)sulfonyl]carbamoyl}cyclopropyl]-9-ethyl-18,18-difluoro-14-methoxy-3,6-dioxo-1,1a,3,4,5,6,9,10,18,19,20,21,22,22a-tetradecahydro-8H-7,10-methanocyclopropa[18,19][1,10,3,6]dioxadiazacyclononadecino[11,12-b]quinoxaline-8-carboxamide], the Ki was found to be 0.23 nM.
Take `CC[C@@H]1[C@@H]2CN(C(=O)[C@H](C(C)(C)C)NC(=O)O[C@]3(C)CCC[C@H]3CCCCCc3nc4ccc(OC)cc4nc3O2)[C@@H]1C(=O)N[C@]1(C(=O)NS(=O)(=O)C2CC2)C[C@H]1C(F)F` [Example 40, (3aR,7S,10S,11S,12R,24aR)-7-tert-butyl-N-[(1R,2R)-1-[(cyclopropylsulfonyl)carbamoyl]-2-(difluoromethyl)cyclopropyl]-11-ethyl-16-methoxy-3a-methyl-5,8-dioxo-1,2,3,3a,5,6,7,8,11,12,20,21,22,23,24,24a-hexadecahydro-10H-9,12-methanocyclopenta[18,19][1,10,3,6]dioxadiazacyclononadecino[11,12-b]quinoxaline-10-carboxamide]: the inhibitory constant (Ki) was determined as 0.18 nM.
Still for that read-out and setting: with `CC[C@@H]1[C@@H]2CN(C(=O)[C@H](C(C)(C)C)NC(=O)O[C@@H]3C[C@H]3CCCCCc3nc4ccc(OC)cc4nc3O2)[C@@H]1C(=O)N[C@]1(C(=O)NS(=O)(=O)C2(C)CC2)C[C@H]1CC` [Example 4, (1aR,5S,8S,9S,10R,22aR)-5-tert-butyl-9-ethyl-N-[(1R,2R)-2-ethyl-1-{[(1-methylcyclopropyl)sulfonyl]carbamoyl}cyclopropyl]-14-methoxy-3,6-dioxo-1,1a,3,4,5,6,9,10,18,19,20,21,22,22a-tetradecahydro-8H-7,10-methanocyclopropa[18,19][1,10,3,6]dioxadiazacyclononadecino[11,12-b]quinoxaline-8-carboxamide] the figure was 0.56 nM.
Turning to `COc1ccc2nc3c(nc2c1)O[C@H]1CN(C(=O)[C@H](C(C)(C)C)NC(=O)O[C@H]2CC4CC(C4)[C@@H]2CCCCC3)[C@H](C(=O)N[C@]2(C(=O)NS(=O)(=O)C3CC3)C[C@H]2C(F)F)[C@@H]1C` [Example 72, (4aS,8S,11S,12S,13R,25aS)-8-tert-butyl-N-[(1R,2R)-1-[(cyclopropylsulfonyl)carbamoyl]-2-(difluoromethyl)cyclopropyl]-17-methoxy-12-methyl-6,9-dioxo-2,3,4,4a,6,7,8,9,12,13,21,22,23,24,25,25a-hexadecahydro-1H,11H-1,3:10,13-dimethanoquinoxalino[2,3-k][1,10,3,6]benzodioxadiazacyclononadecine-11-carboxamide], the Ki is 4.1 nM.
Still for that read-out and setting: with `CC[C@@H]1[C@@H]2CN(C(=O)[C@H](C(C)(C)C)NC(=O)O[C@@H]3C[C@H]3CCCCC(F)(F)c3nc4ccc(OC)cc4nc3O2)[C@@H]1C(=O)N[C@]1(C(=O)NS(=O)(=O)C2CC2)C[C@H]1CC` [Example 34, (1aR,5S,8S,9S,10R,22aR)-5-tert-butyl-N-{(1R,2R)-1-[(cyclopropylsulfonyl)carbamoyl]-2-ethylcyclopropyl}-9-ethyl-18,18-difluoro-14-methoxy-3,6-dioxo-1,1a,3,4,5,6,9,10,18,19,20,21,22,22a-tetradecahydro-8H-7,10-methanocyclopropa[18,19][1,10,3,6]dioxadiazacyclononadecino[11,12-b]quinoxaline-8-carboxamide] the figure was 0.28 nM.

Still in this experiment, the particulars now being: read-out: Ki 3A, 200 pM enzyme, 20 μM NS4A peptide, 2 μM substrate.
Regarding `COc1ccc2nc3c(nc2c1)O[C@H]1CN(C(=O)[C@H](C(C)(C)C)NC(=O)O[C@@H]2C[C@@H]4C[C@@H]4[C@H]2CCCCC3)[C@H](C(=O)N[C@]2(C(=O)NS(=O)(=O)C3(C)CC3)C[C@H]2C(F)F)[C@@H]1C` [Example 49, (1aS,2aR,6S,9S,10S,11R,23aR,23bS)-6-tert-butyl-N-[(1R,2R)-2-(difluoromethyl)-1-{[(1-methylcyclopropyl)sulfonyl]carbamoyl}cyclopropyl]-15-methoxy-10-methyl-4,7-dioxo-1a,2,2a,4,5,6,7,10,11,19,20,21,22,23,23a,23b-hexadecahydro-1H,9H-8,11-methanocyclopropa[4′,5′]cyclopenta[1′,2′:18,19][1,10,3,6]dioxadiazacyclononade cino[11,12-b]quinoxaline-9-carboxamide], the Ki is 0.07 nM.
On to `COc1ccc2nc3c(nc2c1)O[C@H]1CN(C(=O)[C@H](C(C)(C)C)NC(=O)O[C@@H]2C[C@@H]4C[C@@H]4[C@H]2CCCCC3)[C@H](C(=O)N[C@]2(C(=O)NS(=O)(=O)C3CC3)C[C@H]2CC(F)F)[C@@H]1C` [Example 57, (1aS,2aR,6S,9S,10S,11R,23aR,23bS)-6-tert-butyl-N-[(1R,2S)-1-[(cyclopropylsulfonyl)carbamoyl]-2-(2,2-difluoroethyl)cyclopropyl]-15-methoxy-10-methyl-4,7-dioxo-1a,2,2a,4,5,6,7,10,11,19,20,21,22,23,23a,23b-hexadecahydro-1H,9H-8,11-methanocyclopropa[4′,5′]cyclopenta[1′,2′:18,19][1,10,3,6]dioxadiazacyclononade cino[11,12-b]quinoxaline-9-carboxamide], for which the inhibition constant Ki amounted to 0.28 nM.
As for `CC[C@@H]1[C@@H]2CN(C(=O)[C@H](C3CCCC3)NC(=O)O[C@@H]3C[C@H]3CCCCCc3nc4ccc(OC)cc4nc3O2)[C@@H]1C(=O)N[C@]1(C(=O)NS(=O)(=O)C2CC2)C[C@H]1C(F)F` [Example 15, (1aR,5S,8S,9S,10R,22aR)-5-cyclopentyl-N-[(1R,2R)-1-[(cyclopropylsulfonyl)carbamoyl]-2-(difluoromethyl)cyclopropyl]-9-ethyl-14-methoxy-3,6-dioxo-1,1a,3,4,5,6,9,10,18,19,20,21,22,22a-tetradecahydro-8H-7,10-methanocyclopropa[18,19][1,10,3,6]dioxadiazacyclononadecino[11,12-b]quinoxaline-8-carboxamide], the inhibitory constant (Ki) came to 0.3 nM.
Same read-out and setting: for `CCC[C@@H]1[C@@H]2CN(C(=O)[C@H](C(C)(C)C)NC(=O)O[C@@H]3C[C@H]3CCCCC(F)(F)c3nc4ccc(OC)cc4nc3O2)[C@@H]1C(=O)N[C@]1(C(=O)NS(=O)(=O)C2(C)CC2)C[C@H]1C(F)F` [Example 65, (1aR,5S,8S,9S,10R,22aR)-5-tert-butyl-N-[(1R,2R)-2-(difluoromethyl)-1-{[(1-methylcyclopropyl)sulfonyl]carbamoyl}cyclopropyl]-18,18-difluoro-14-methoxy-3,6-dioxo-9-propyl-1,1a,3,4,5,6,9,10,18,19,20,21,22,22a-tetradecahydro-8H-7,10-methanocyclopropa[18,19][1,10,3,6]dioxadiazacyclononadecino[11,12-b]quinoxaline-8-carboxamide] the value was 0.07 nM.

These data come from patent publication US20150175655A1 (priority 2012, published 2015).
